Converted amounts (≈) assume the structure as drawn.
Tests used:
[1] = Aqueous solubility of compound at pH 7.4; format: physicochemical
[2] = Solubility in 10% 2-hydroxypropyl-B-cyclodextrin; format: physicochemical
[3] = target: hERG (KCNH2) (Homo sapiens, UniProt Q12809); assay: Inhibition of human ERG at 10 uM by Qpatch method relative to control
[4] = system: CYP3A; assay: Inhibition of CYP3A in human liver microsomes at 10 uM using testosterone as substrate measured for 10 to 30 mins in presence of NADPH by LC-MS/MS analysis relative to control; format: ADME; conditions: probe testosterone, time 10-30 min
[5] = target: CYP2C19 (Homo sapiens, UniProt P33261); assay: Inhibition of CYP2C19 in human liver microsomes at 10 uM using S-mephenytoin as substrate measured for 10 to 30 mins in presence of NADPH by LC-MS/MS analysis relative to control; format: ADME; conditions: probe S-mephenytoin, time 10-30 min
[6] = Protein binding in mouse plasma at 1 uM measured after 4 hrs by LC-MS/MS based rapid equilibrium dialysis method; format: ADME, cell-free; conditions: read-out: PPB (converted)
[7] = target: T1, CYP1A2 (Homo sapiens, UniProt P05177); assay: Inhibition of CYP1A2 in human liver microsomes at 10 uM using phenacetin as substrate measured for 10 to 30 mins in presence of NADPH by LC-MS/MS analysis relative to control; format: ADME; conditions: probe phenacetin, time 10-30 min
T1 sequence (P05177 whole entry): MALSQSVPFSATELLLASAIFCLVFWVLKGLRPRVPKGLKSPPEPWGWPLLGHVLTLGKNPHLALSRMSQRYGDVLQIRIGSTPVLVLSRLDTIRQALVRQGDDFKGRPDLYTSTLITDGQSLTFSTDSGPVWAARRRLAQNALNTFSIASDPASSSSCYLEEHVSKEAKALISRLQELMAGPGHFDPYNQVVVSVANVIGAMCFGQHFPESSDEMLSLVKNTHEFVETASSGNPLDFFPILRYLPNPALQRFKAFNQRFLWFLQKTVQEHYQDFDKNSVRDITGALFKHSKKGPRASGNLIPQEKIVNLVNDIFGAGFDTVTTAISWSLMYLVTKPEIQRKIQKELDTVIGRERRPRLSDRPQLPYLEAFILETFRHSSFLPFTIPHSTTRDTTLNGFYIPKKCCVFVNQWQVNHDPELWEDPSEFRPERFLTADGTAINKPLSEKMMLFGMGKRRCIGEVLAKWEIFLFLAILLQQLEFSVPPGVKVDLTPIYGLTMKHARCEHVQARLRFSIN

[8] = Metabolic stability in mouse liver microsomes assessed as half life measured up to 60 mins in presence of NADPH by LC-MS/MS analysis; format: ADME, Microsome
[9] = Selectivity index, ratio of CC50 for human HepG2 cells to MIC for candida albicans; format: toxicity; conditions: read-out: Selectivity Index
[10] = Cytotoxicity against mouse 3T3 cells assessed as reduction in metabolic activity measured after 24 hrs; format: ADME, cell-based
[11] = Selectivity index, ratio of CC50 for mouse 3T3 cells to MIC for candida albicans; format: toxicity; conditions: read-out: Selectivity Index
[12] = Cytotoxicity against human HepG2 cells assessed as reduction in metabolic activity measured after 24 hrs; format: ADME, cell-based
[13] = system: Candida albicans; assay: Antifungal activity against Candida albicans clinical isolate; format: functional
[14] = Antifungal activity against Mucor ramosissimus ATCC 90286; format: functional
[15] = system: Mucor circinelloides; assay: Antifungal activity against Mucor circinelloides ATCC 26579; format: functional
[16] = system: Fusarium solani; assay: Antifungal activity against Fusarium solani ATCC 58877; format: functional
[17] = system: Aspergillus fumigatus; assay: Antifungal activity against Aspergillus fumigatus ATCC 3626; format: functional
[18] = system: Aspergillus flavus; assay: Antifungal activity against Aspergillus flavus ATCC 3631; format: functional
[19] = Antifungal activity against Fusarium falciforme ATCC 3636; format: functional
[20] = system: Rhizopus; assay: Antifungal activity against Rhizopus assessed as inhibition of fungal growth by broth dilution assay; format: functional, organism-based
[21] = system: Candida; assay: Antifungal activity against Candida assessed as inhibition of fungal growth by broth dilution assay; format: functional, organism-based
[22] = system: Aspergillus; assay: Antifungal activity against Aspergillus assessed as inhibition of fungal growth by broth dilution assay; format: functional, organism-based

Sequence of hERG (KCNH2) (Q12809 whole entry): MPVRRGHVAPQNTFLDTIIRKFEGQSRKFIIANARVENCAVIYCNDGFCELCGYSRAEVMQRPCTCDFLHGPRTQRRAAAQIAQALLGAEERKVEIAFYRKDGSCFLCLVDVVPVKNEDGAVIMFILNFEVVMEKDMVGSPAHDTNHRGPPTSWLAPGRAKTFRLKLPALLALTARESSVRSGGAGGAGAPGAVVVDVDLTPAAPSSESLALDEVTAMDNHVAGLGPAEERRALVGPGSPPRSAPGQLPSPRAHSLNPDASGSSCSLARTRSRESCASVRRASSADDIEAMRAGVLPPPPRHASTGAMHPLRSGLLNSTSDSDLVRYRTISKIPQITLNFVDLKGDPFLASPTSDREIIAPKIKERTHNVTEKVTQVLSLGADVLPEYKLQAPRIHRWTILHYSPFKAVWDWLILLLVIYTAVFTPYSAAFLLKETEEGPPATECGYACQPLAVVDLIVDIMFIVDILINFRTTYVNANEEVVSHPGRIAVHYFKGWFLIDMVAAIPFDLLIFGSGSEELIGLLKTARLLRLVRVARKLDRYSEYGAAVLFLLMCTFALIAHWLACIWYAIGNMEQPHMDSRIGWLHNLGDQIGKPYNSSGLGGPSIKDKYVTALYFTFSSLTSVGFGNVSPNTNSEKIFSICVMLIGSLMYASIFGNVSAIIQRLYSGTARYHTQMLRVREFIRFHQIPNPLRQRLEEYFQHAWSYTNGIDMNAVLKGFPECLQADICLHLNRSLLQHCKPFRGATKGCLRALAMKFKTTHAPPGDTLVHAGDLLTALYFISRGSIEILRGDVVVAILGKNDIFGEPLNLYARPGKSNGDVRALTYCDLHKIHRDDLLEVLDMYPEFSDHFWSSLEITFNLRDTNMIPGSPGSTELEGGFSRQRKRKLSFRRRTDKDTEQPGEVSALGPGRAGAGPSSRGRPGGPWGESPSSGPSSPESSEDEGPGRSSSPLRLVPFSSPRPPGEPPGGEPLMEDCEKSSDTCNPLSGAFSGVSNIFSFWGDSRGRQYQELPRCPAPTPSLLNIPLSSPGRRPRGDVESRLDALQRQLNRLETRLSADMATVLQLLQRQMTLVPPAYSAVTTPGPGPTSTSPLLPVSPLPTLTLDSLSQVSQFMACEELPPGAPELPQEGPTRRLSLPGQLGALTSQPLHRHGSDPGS
Sequence of CYP2C19 (P33261 whole entry): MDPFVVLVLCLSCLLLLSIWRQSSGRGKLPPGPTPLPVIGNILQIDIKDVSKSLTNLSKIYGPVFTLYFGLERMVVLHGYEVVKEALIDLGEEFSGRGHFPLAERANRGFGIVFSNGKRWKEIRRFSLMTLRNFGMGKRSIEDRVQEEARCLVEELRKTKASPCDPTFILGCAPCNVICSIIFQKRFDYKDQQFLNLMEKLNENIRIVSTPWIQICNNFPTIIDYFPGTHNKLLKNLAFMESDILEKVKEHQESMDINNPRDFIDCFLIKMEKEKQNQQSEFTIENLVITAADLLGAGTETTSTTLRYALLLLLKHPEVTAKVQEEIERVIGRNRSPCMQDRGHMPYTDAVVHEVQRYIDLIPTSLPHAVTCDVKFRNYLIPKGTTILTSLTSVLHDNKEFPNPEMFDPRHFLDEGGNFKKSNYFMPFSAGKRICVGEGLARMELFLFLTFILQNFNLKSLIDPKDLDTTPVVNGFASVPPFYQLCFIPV

Row | Compound | MIC [14] | MIC [15] | MIC [16] | MIC [17] | MIC [18] | MIC [19] | also measured
1 | CC(C)n1c(-c2ccc(C3=CCN(C(=N)N)CC3)cc2)nnc1-c1ccc(C2=CCN(C(=N)N)CC2)cc1 | 0.78 µg/mL (≈ 1.53 µM) | 0.2 µg/mL (≈ 0.392 µM) | < 0.1 µg/mL | < 0.1 µg/mL | < 0.1 µg/mL | < 0.1 µg/mL | solubility [1]: 27 µg/mL (≈ 53 µM); solubility [2]: ≤ 5000 µg/mL; inhibition at 10 µM [3]: 21.6%; inhibition at 10 µM [4]: 0%; inhibition at 10 µM [5]: 10.3%; fraction unbound at 4 h, 1 µM [6]: 0.027; inhibition at 10 µM [7]: 0%; half-life [8]: > 1 h; selectivity ratio [9]: > 1000; CC50 at 24 h [10]: 297 µM; selectivity ratio [11]: > 1000; CC50 at 24 h [12]: 751 µM; MIC50 [13]: 0.1 µg/mL (≈ 0.196 µM)
2 | Cn1c(-c2ccc(C3CCN(C(=N)N)CC3)cc2)nnc1-c1ccc(C2CCN(C(=N)N)CC2)cc1 | > 100 µg/mL | > 100 µg/mL | 0.78 µg/mL (≈ 1.61 µM) | 1.56 µg/mL (≈ 3.21 µM) | 1.56 µg/mL (≈ 3.21 µM) | 0.78 µg/mL (≈ 1.61 µM) | –
3 | NC(N)=N/N=C/c1ccc(OCc2ccc(Cl)c(Cl)c2)cc1 | – | – | – | – | – | – | IC50 [20]: > 12 µM; IC50 [21]: > 12 µM; IC50 [22]: > 12 µM
4 | N=C(N)N1CC=C(c2ccc(-c3nnc(-c4ccc(C5=CCN(C(=N)N)CC5)cc4)n3Cc3ccccc3)cc2)CC1 | 3.13 µg/mL (≈ 5.61 µM) | 1.56 µg/mL (≈ 2.8 µM) | 0.05 µg/mL (≈ 0.0897 µM) | 0.39 µg/mL (≈ 0.699 µM) | 1.56 µg/mL (≈ 2.8 µM) | 0.1 µg/mL (≈ 0.179 µM) | –
5 | Cn1c(-c2ccc(CNC(=N)N)cc2)cnc1-c1ccc(CNC(=N)N)cc1 | > 100 µg/mL | > 100 µg/mL | > 100 µg/mL | > 100 µg/mL | > 100 µg/mL | > 100 µg/mL | –
6 | N=C(N)N1CC=C(c2ccc(-c3nnc(-c4ccc(C5=CCN(C(=N)N)CC5)cc4)n3C3CCCCC3)cc2)CC1 | 1.56 µg/mL (≈ 2.84 µM) | 0.39 µg/mL (≈ 0.709 µM) | 0.39 µg/mL (≈ 0.709 µM) | 0.39 µg/mL (≈ 0.709 µM) | 0.78 µg/mL (≈ 1.42 µM) | 0.2 µg/mL (≈ 0.364 µM) | –
7 | Cn1c(-c2ccc(C3=CCN(C(=N)N)CC3)cc2)nnc1-c1ccc(C2=CCN(C(=N)N)CC2)c(C(F)(F)F)c1 | 3.13 µg/mL (≈ 5.69 µM) | 0.78 µg/mL (≈ 1.42 µM) | 0.2 µg/mL (≈ 0.364 µM) | 0.2 µg/mL (≈ 0.364 µM) | 0.39 µg/mL (≈ 0.71 µM) | 0.2 µg/mL (≈ 0.364 µM) | –
8 | Cc1cc(C2=CCN(C(=N)N)CC2)ccc1-c1nnc(-c2ccc(C3=CCN(C(=N)N)CC3)cc2)n1C | 6.25 µg/mL (≈ 12.6 µM) | 3.13 µg/mL (≈ 6.32 µM) | 0.2 µg/mL (≈ 0.404 µM) | 0.2 µg/mL (≈ 0.404 µM) | 0.39 µg/mL (≈ 0.787 µM) | 0.2 µg/mL (≈ 0.404 µM) | –
9 | Cc1cc(-c2nnc(-c3ccc(C4=CCN(C(=N)N)CC4)cc3)o2)ccc1C1=CCN(C(=N)N)CC1 | 25 µg/mL (≈ 51.8 µM) | 25 µg/mL (≈ 51.8 µM) | 1.56 µg/mL (≈ 3.23 µM) | > 25 µg/mL | 6.25 µg/mL (≈ 13 µM) | 0.39 µg/mL (≈ 0.808 µM) | –
10 | N=C(N)N1CC=C(c2ccc(-c3nnc(-c4ccc(C5=CCN(C(=N)N)CC5)cc4)o3)cc2)CC1 | 100 µg/mL (≈ 213 µM) | 100 µg/mL (≈ 213 µM) | 6.25 µg/mL (≈ 13.3 µM) | 3.13 µg/mL (≈ 6.68 µM) | 3.13 µg/mL (≈ 6.68 µM) | 0.39 µg/mL (≈ 0.832 µM) | –
11 | Cn1c(-c2ccc(C3=CCN(C(=N)N)CC3)cc2)cnc1-c1ccc(C2=CCN(C(=N)N)CC2)cc1 | 6.25 µg/mL (≈ 13 µM) | 0.78 µg/mL (≈ 1.62 µM) | 3.13 µg/mL (≈ 6.51 µM) | 0.2 µg/mL (≈ 0.416 µM) | 0.39 µg/mL (≈ 0.811 µM) | < 0.1 µg/mL | –
